In brackets after ≈: the same amount, converted by molar mass.
Columns and labels:
Staphylococcus aureus [1] = assay: Antibacterial activity against methicillin-resistant Staphylococcus aureus OM481 by two-fold liquid microdilution method; type: functional
Staphylococcus aureus [2] = assay: Antibacterial activity against methicillin-resistant Staphylococcus aureus OM584 by two-fold liquid microdilution method; type: functional

Structure (SMILES)	MIC (Staphylococcus aureus [1])	MIC (Staphylococcus aureus [2])
COc1ccc2c(c1)CCc1ccc(cc1)Oc1cccc(c1)CCc1ccc-2cc1	> 100 µg/mL	> 100 µg/mL
Oc1ccc(-c2ccccc2O)cc1	> 100 µg/mL	> 100 µg/mL
Oc1ccc2c(c1)CCc1ccc(c(O)c1)Oc1cc(ccc1O)CCc1ccc-2c(O)c1	16 µg/mL (≈ 36.3 µM)	16 µg/mL (≈ 36.3 µM)
COc1ccc2cc1Oc1ccc(cc1)CCc1ccccc1-c1ccc(cc1)CC2	> 100 µg/mL	> 100 µg/mL
COc1cc2ccc1-c1ccccc1CCc1ccc(cc1)Oc1cccc(c1)CC2	> 100 µg/mL	> 100 µg/mL
Oc1ccc2cc1Oc1ccc(cc1)CCc1ccccc1-c1ccc(cc1)CC2	> 100 µg/mL	> 100 µg/mL
Oc1ccc(CCc2cccc(O)c2)cc1 [LUNULARIN]	> 100 µg/mL	> 100 µg/mL
Oc1cc2ccc1-c1ccccc1CCc1ccc(cc1)Oc1cccc(c1)CC2	3.2 µg/mL (≈ 8.15 µM)	> 100 µg/mL
Oc1ccc2cc1Oc1ccc(cc1)CCc1ccccc1-c1ccc(cc1O)CC2	3.2 µg/mL (≈ 7.83 µM)	3.2 µg/mL (≈ 7.83 µM)
Oc1ccc2c(c1)CCc1ccc(cc1)Oc1cc(ccc1O)CCc1ccc-2c(O)c1 [RICCARDI C]	3.2 µg/mL (≈ 7.54 µM)	3.2 µg/mL (≈ 7.54 µM)
CC(=O)NC[C@H]1CN(c2ccc(N3CCOCC3)c(F)c2)C(=O)O1 [LINEZOLID]	1 µg/mL (≈ 2.96 µM)	1 µg/mL (≈ 2.96 µM)
Oc1ccc2c(c1)CCc1ccc(cc1O)Oc1cc(ccc1O)CCc1ccc-2c(O)c1	8 µg/mL (≈ 18.2 µM)	8 µg/mL (≈ 18.2 µM)
Oc1ccc2c(c1)CCc1ccc(cc1)Oc1cccc(c1)CCc1ccc-2cc1	1.6 µg/mL (≈ 4.08 µM)	> 100 µg/mL
Oc1ccc2c(c1)CCc1ccc(cc1)Oc1cccc(c1)CCc1ccc-2c(O)c1	3.2 µg/mL (≈ 7.83 µM)	3.2 µg/mL (≈ 7.83 µM)
Oc1ccccc1Oc1ccccc1	6.25 µg/mL (≈ 33.6 µM)	6.25 µg/mL (≈ 33.6 µM)
Oc1ccc2c(c1)CCc1ccc(cc1)Oc1cc(ccc1O)CCc1ccc-2cc1	3.2 µg/mL (≈ 7.83 µM)	3.2 µg/mL (≈ 7.83 µM)

Source: ChEMBL document CHEMBL2203260, “Riccardin C derivatives as anti-MRSA agents: structure-activity relationship of a series of hydroxylated bis(bibenzyl)s” (2012)
